Test results from ChEMBL document CHEMBL4665836, “Overcoming β-Lactam resistance in Pseudomonas aeruginosa using non-canonical tobramycin-based antibiotic adjuvants” (2020).

Tests used:
Assay type in all cases: functional
[1] = tested on: Pseudomonas aeruginosa; assay: Potentiation of ceftazidime-induced antibacterial activity against carbapenem-resistant Pseudomonas aeruginosa 86052 clinical isolate assessed as ceftazidime MIC at 8 uM by checkerboard assay (reference value: 64 ug/ml)
[2] = tested on: Pseudomonas aeruginosa; assay: Potentiation of imipenem-induced antibacterial activity against carbapenem-resistant Pseudomonas aeruginosa 109084 clinical isolate assessed as imipenem MIC at 8 uM by checkerboard assay (reference value: 16 ug/ml)
[3] = tested on: Pseudomonas aeruginosa; assay: Potentiation of ceftazidime-induced antibacterial activity against carbapenem-resistant Pseudomonas aeruginosa 108590 clinical isolate assessed as ceftazidime MIC at 8 uM by checkerboard assay (reference value: 32 ug/ml)
[4] = tested on: Pseudomonas aeruginosa; assay: Potentiation of imipenem-induced antibacterial activity against carbapenem-resistant Pseudomonas aeruginosa 88949 clinical isolate assessed as fold reduction in imipenem MIC at 8 uM in presence of beta-lactamase inhibitor, rele-bactam
[5] = tested on: Pseudomonas aeruginosa; assay: Potentiation of aztreonam-induced antibacterial activity against carbapenem-resistant Pseudomonas aeruginosa 264-104354 clinical isolate assessed as aztreonam MIC at 8 uM by checkerboard assay (reference value: 32 ug/ml)
[6] = tested on: Pseudomonas aeruginosa; assay: Potentiation of ceftazidime-induced antibacterial activity against carbapenem-resistant Pseudomonas aeruginosa 88949 clinical isolate assessed as fold reduction in ceftazidime MIC at 8 uM in presence of beta-lactamase inhibitor, avi-bactam
[7] = tested on: Pseudomonas aeruginosa; assay: Potentiation of ceftazidime-induced antibacterial activity against carbapenem-resistant Pseudomonas aeruginosa 101885 clinical isolate assessed as ceftazidime MIC at 8 uM by checkerboard assay (reference value: 8 ug/ml)
[8] = tested on: Pseudomonas aeruginosa; assay: Potentiation of piperacillin-induced antibacterial activity against wild type Pseudomonas aeruginosa PAO1 assessed as piperacillin MIC at 8 uM by checkerboard assay (reference value: 8 ug/ml)
[9] = tested on: Pseudomonas aeruginosa; assay: Antibacterial activity against Pseudomonas aeruginosa PAO200 harboring mexAB-oprM efflux deficient mutant
[10] = tested on: Pseudomonas aeruginosa; assay: Potentiation of ceftazidime-induced antibacterial activity against carbapenem-resistant Pseudomonas aeruginosa PAO750 harboring and mexAB-oprM/mexCD-oprJ/mexEF-oprN/mexJK/mexXY/opmH efflux deficient mutant assessed as ceftazidime MIC at 8 uM by checkerboard assay (reference value: 0.5 ug/ml)
[11] = tested on: Pseudomonas aeruginosa; assay: Potentiation of imipenem-induced antibacterial activity against carbapenem-resistant Pseudomonas aeruginosa 107092 clinical isolate assessed as fold reduction in imipenem MIC at 8 uM in presence of beta-lactamase inhibitor, rele-bactam
[12] = tested on: Pseudomonas aeruginosa; assay: Potentiation of imipenem-induced antibacterial activity against carbapenem-resistant Pseudomonas aeruginosa 109084 clinical isolate assessed as fold reduction in imipenem MIC at 8 uM in presence of beta-lactamase inhibitor, rele-bactam
[13] = tested on: Pseudomonas aeruginosa; assay: Potentiation of imipenem-induced antibacterial activity against carbapenem-resistant Pseudomonas aeruginosa 108590 clinical isolate assessed as imipenem MIC at 8 uM by checkerboard assay (reference value: 16 ug/ml)
[14] = tested on: Pseudomonas aeruginosa; assay: Potentiation of ceftazidime-induced antibacterial activity against carbapenem-resistant Pseudomonas aeruginosa PAO200 harboring mexAB-oprM efflux deficient mutant assessed as ceftazidime MIC at 8 uM by checkerboard assay (reference value: 1 ug/ml)
[15] = tested on: Pseudomonas aeruginosa; assay: Potentiation of imipenem-induced antibacterial activity against carbapenem and colistin-resistant Pseudomonas aeruginosa 91433 clinical isolate assessed as imipenem MIC at 8 uM by checkerboard assay (reference value: 8 ug/ml)
[16] = tested on: Pseudomonas aeruginosa; assay: Potentiation of ceftazidime-induced antibacterial activity against carbapenem and colistin-resistant Pseudomonas aeruginosa 91433 clinical isolate assessed as ceftazidime MIC at 8 uM by checkerboard assay (reference value: 4 ug/ml)
[17] = tested on: Pseudomonas aeruginosa; assay: Potentiation of ceftazidime-induced antibacterial activity against carbapenem-resistant Pseudomonas aeruginosa 108590 clinical isolate assessed as fold reduction in ceftazidime MIC at 8 uM in presence of beta-lactamase inhibitor, avi-bactam
[18] = tested on: Pseudomonas aeruginosa; assay: Potentiation of aztreonam-induced antibacterial activity against carbapenem and colistin-resistant Pseudomonas aeruginosa 101243 clinical isolate assessed as aztreonam MIC at 8 uM by checkerboard assay (reference value: 32 ug/ml)
[19] = tested on: Pseudomonas aeruginosa; assay: Potentiation of piperacillin-induced antibacterial activity against wild type Pseudomonas aeruginosa PAO1 assessed as fold reduction in piperacillin MIC at 8 uM
[20] = tested on: Pseudomonas aeruginosa; assay: Potentiation of aztreonam-induced antibacterial activity against carbapenem-resistant Pseudomonas aeruginosa 109084 clinical isolate assessed as aztreonam MIC at 8 uM by checkerboard assay (reference value: 64 ug/ml)
[21] = tested on: Pseudomonas aeruginosa; assay: Potentiation of ceftazidime-induced antibacterial activity against wild type Pseudomonas aeruginosa PAO1 assessed as fold reduction in ceftazidime MIC at 8 uM
[22] = tested on: Pseudomonas aeruginosa; assay: Potentiation of imipenem-induced antibacterial activity against carbapenem-resistant Pseudomonas aeruginosa 264-104354 clinical isolate assessed as imipenem MIC at 8 uM by checkerboard assay (reference value: 16 ug/ml)
[23] = tested on: Pseudomonas aeruginosa; assay: Potentiation of aztreonam-induced antibacterial activity against carbapenem-resistant Pseudomonas aeruginosa 86052 clinical isolate assessed as aztreonam MIC at 8 uM by checkerboard assay (reference value: 64 ug/ml)
[24] = tested on: Pseudomonas aeruginosa; assay: Potentiation of imipenem-induced antibacterial activity against carbapenem-resistant Pseudomonas aeruginosa 262-101856 clinical isolate assessed as imipenem MIC at 8 uM by checkerboard assay (reference value: 32 ug/ml)
[25] = tested on: Pseudomonas aeruginosa; assay: Potentiation of aztreonam-induced antibacterial activity against carbapenem-resistant Pseudomonas aeruginosa 107092 clinical isolate assessed as aztreonam MIC at 8 uM by checkerboard assay (reference value: 64 ug/ml)
[26] = tested on: Pseudomonas aeruginosa; assay: Potentiation of aztreonam-induced antibacterial activity against carbapenem-resistant Pseudomonas aeruginosa 101885 clinical isolate assessed as aztreonam MIC at 8 uM by checkerboard assay (reference value: 16 ug/ml)
[27] = tested on: Pseudomonas aeruginosa; assay: Potentiation of aztreonam-induced antibacterial activity against carbapenem-resistant Pseudomonas aeruginosa 100036 clinical isolate assessed as aztreonam MIC at 8 uM by checkerboard assay (reference value: 16 ug/ml)
[28] = tested on: Pseudomonas aeruginosa; assay: Potentiation of ceftazidime-induced antibacterial activity against carbapenem-resistant Pseudomonas aeruginosa 264-104354 clinical isolate assessed as ceftazidime MIC at 8 uM by checkerboard assay (reference value: 128 ug/ml)
[29] = tested on: Pseudomonas aeruginosa; assay: Potentiation of aztreonam-induced antibacterial activity against carbapenem-resistant Pseudomonas aeruginosa 88949 clinical isolate assessed as aztreonam MIC at 8 uM by checkerboard assay (reference value: 32 ug/ml)
[30] = tested on: Pseudomonas aeruginosa; assay: Potentiation of imipenem-induced antibacterial activity against carbapenem-resistant Pseudomonas aeruginosa 86052 clinical isolate assessed as imipenem MIC at 8 uM by checkerboard assay (reference value: 32 ug/ml)
[31] = tested on: Pseudomonas aeruginosa; assay: Potentiation of ceftazidime-induced antibacterial activity against carbapenem and colistin-resistant Pseudomonas aeruginosa 101243 clinical isolate assessed as ceftazidime MIC at 8 uM by checkerboard assay (reference value: 64 ug/ml)
[32] = tested on: Pseudomonas aeruginosa; assay: Potentiation of ceftazidime-induced antibacterial activity against carbapenem-resistant Pseudomonas aeruginosa 88949 clinical isolate assessed as ceftazidime MIC at 8 uM by checkerboard assay (reference value: 64 ug/ml)
[33] = tested on: Pseudomonas aeruginosa; assay: Potentiation of ceftazidime-induced antibacterial activity against carbapenem-resistant Pseudomonas aeruginosa 109084 clinical isolate assessed as fold reduction in ceftazidime MIC at 8 uM in presence of beta-lactamase inhibitor, avi-bactam

NC[C@H]1O[C@H](O[C@H]2[C@H](OCCCCCCCCN3CCCNCCNCCCNCC3)[C@@H](O)[C@H](N)C[C@@H]2N)[C@H](N)C[C@@H]1O.O=C(O)C(F)(F)F.O=C(O)C(F)(F)F.O=C(O)C(F)(F)F.O=C(O)C(F)(F)F.O=C(O)C(F)(F)F.O=C(O)C(F)(F)F.O=C(O)C(F)(F)F.O=C(O)C(F)(F)F was tested, and the MIC [1] was 64 µg/mL, the MIC [2] was 16 µg/mL and the MIC [3] was 16 µg/mL. The “fold change (FC)” value [4] was 16, the MIC [5] was 16 µg/mL and the “fold change (FC)” value [6] was 16. The MIC [7] was 2 µg/mL, the MIC [8] was 2 µg/mL and the MIC [9] was > 128 µg/mL. For the same compound, the MIC [10] was 0.13 µg/mL, the “fold change (FC)” value [11] was 16 and the “fold change (FC)” value [12] was 16. The MIC [13] was 16 µg/mL, the MIC [14] was 0.13 µg/mL and the MIC [15] was 4 µg/mL. The MIC [16] was 2 µg/mL, the “fold change (FC)” value [17] was 16 and the MIC [18] was 2 µg/mL. The “fold change (FC)” value [19] was 2, the MIC [20] was 32 µg/mL and the “fold change (FC)” value [21] was 2. For the same compound, the MIC [22] was 16 µg/mL, the MIC [23] was 64 µg/mL and the MIC [24] was 16 µg/mL. It also gave an MIC [25] of 32 µg/mL, an MIC [26] of 4 µg/mL and an MIC [27] of 8 µg/mL. It also gave an MIC [28] of 32 µg/mL, an MIC [29] of 32 µg/mL and an MIC [30] of 16 µg/mL. For the same compound, the MIC [31] was 8 µg/mL, the MIC [32] was 64 µg/mL and the “fold change (FC)” value [33] was 16.
